The text below walks through data of ChEMBL document CHEMBL5126531, “NAE modulators: A potential therapy for gastric carcinoma” (Eur J Med Chem, 2022).

The target in series [1] is T1, NEDD8 activating enzyme (Homo sapiens, UniProt Q8TBC4).
T1 sequence (Q8TBC4 whole entry): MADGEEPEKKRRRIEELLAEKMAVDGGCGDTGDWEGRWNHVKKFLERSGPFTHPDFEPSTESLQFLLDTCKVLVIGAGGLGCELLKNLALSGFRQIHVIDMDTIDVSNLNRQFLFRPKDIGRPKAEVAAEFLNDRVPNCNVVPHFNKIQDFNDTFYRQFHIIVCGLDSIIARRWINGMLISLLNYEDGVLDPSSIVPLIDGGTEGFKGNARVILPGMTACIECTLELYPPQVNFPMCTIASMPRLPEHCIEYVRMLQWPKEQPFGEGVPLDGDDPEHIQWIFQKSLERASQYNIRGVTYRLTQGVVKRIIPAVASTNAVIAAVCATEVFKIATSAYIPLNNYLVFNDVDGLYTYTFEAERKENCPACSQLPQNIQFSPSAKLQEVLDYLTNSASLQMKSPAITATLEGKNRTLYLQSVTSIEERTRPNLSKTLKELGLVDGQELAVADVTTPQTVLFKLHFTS
T1 sequence (Q13564 whole entry): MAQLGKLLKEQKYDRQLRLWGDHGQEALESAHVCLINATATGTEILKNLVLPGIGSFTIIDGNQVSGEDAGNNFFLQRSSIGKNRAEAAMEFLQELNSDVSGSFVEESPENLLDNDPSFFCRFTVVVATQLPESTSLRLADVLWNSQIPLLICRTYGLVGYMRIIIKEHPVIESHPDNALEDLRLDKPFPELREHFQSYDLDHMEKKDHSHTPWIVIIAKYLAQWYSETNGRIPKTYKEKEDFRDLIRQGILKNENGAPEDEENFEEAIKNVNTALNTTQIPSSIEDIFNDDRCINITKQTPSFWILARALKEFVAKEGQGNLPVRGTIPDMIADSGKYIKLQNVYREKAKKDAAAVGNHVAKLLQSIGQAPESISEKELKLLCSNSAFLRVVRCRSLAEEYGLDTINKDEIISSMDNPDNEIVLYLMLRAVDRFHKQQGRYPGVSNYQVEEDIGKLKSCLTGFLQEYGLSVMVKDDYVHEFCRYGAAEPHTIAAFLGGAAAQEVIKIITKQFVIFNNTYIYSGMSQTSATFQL
Put plainly: Inhibition of recombinant human APPBP1/UBA3 expressed in Escherichia coli assessed as Ub/Ubl thioester transfer.

In series [2] the target is T2, Ubiquitin-like modifier-activating enzyme 1 (Homo sapiens, UniProt P22314).
T2 sequence (P22314 whole entry): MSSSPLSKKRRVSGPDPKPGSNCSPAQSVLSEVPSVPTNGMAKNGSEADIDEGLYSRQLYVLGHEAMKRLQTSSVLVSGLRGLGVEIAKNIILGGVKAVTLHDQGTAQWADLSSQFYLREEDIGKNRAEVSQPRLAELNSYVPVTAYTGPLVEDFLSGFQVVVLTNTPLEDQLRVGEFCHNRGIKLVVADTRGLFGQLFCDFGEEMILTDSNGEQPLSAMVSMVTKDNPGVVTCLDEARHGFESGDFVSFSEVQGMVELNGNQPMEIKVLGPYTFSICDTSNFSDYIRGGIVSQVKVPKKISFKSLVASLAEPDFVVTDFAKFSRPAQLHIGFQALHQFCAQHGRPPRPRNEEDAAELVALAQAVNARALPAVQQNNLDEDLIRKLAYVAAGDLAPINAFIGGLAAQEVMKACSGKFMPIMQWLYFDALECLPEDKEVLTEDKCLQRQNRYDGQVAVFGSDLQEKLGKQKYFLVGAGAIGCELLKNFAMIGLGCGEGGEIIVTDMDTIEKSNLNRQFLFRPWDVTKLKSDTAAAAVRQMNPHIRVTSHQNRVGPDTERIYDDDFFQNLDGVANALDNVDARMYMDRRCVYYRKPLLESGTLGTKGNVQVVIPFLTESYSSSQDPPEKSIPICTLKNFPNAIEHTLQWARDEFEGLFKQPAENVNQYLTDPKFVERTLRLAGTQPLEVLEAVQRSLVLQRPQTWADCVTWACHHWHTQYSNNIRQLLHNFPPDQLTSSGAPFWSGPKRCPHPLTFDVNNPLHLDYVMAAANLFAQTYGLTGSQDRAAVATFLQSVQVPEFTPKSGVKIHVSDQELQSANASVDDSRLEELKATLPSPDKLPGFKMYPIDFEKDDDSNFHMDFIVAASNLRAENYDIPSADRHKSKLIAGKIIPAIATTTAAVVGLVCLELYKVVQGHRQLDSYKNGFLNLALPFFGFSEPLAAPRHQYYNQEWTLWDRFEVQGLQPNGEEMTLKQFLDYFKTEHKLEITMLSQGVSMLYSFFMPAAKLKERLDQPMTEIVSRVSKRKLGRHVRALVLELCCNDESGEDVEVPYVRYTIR
Put plainly: Inhibition of recombinant C-terminal His-tagged human full length UAE1 expressed in Escherichia coli BL21 (lambdaDE3) assessed as reduction in transfer of Ub to UBE2C enzyme.

The target of series [3] is T3, SUMO-activating enzyme (Homo sapiens, UniProt Q9UBT2). Put plainly: Inhibition of recombinant human SAE1/UBA2 expressed in Escherichia coli assessed as reduction in transfer of […] to UBE2I enzyme.
T3 sequence (Q9UBE0 whole entry): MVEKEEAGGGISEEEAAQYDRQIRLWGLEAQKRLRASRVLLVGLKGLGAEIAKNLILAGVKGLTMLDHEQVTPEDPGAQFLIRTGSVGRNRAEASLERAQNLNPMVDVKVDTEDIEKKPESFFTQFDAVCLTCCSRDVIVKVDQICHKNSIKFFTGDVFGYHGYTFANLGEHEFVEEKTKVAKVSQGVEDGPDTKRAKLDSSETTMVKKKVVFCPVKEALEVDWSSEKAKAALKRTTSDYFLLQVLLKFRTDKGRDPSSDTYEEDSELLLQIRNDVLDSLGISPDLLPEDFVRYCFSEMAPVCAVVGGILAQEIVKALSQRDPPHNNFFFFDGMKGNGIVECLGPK
T3 sequence (Q9UBT2 whole entry): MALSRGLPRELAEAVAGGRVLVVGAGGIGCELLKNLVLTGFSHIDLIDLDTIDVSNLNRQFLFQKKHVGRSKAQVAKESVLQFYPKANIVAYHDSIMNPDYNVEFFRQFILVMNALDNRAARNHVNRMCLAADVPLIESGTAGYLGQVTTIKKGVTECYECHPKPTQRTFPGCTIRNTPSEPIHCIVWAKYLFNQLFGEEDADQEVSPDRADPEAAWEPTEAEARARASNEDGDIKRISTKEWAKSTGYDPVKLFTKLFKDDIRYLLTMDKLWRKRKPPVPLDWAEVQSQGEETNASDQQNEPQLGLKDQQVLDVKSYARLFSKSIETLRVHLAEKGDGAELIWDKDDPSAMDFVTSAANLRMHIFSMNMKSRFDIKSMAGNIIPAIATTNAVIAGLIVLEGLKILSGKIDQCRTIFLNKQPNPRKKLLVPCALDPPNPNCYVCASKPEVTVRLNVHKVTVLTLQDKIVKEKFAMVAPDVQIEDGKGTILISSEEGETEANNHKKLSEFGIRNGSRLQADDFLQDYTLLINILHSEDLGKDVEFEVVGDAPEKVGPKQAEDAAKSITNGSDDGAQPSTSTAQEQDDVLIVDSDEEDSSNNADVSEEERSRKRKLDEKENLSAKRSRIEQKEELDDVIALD
Series [4] deals with CCRF-CEM. Kind of series: Antiproliferative activity against human CCRF-CEM assessed as net growth rate at <1 uM […] by CellTiter-Glo assay relative to control. The format is functional. Background: Cellular ATP, detected with luciferase, serves as a proxy for viable cell number.
Series [5] in a line: Toxicity in SCID mouse xenografted with human TMD8 cells expressing luciferase gene assessed as survival days at 100 mg/kg/day, iv administered at 1 to 21 days cycle for 8 cycles. The class given is organism-based. The settings on record: in vivo, time 1-21 day. On the technique in general: In xenograft studies the graft and the host belong to different species.
In series [6] the target is T4, NEDD8-activating enzyme E1 regulatory subunit (Homo sapiens, UniProt Q13564).
T4 sequence (Q13564 whole entry): T1 sequence (Q13564 whole entry)
Kind of series: Inhibition of NAE (unknown origin).

The target in series [7] is T2, Ubiquitin-like modifier-activating enzyme 1. Kind of series: Inhibition of UAE (unknown origin).
Series [8] relates to MGC-803. Kind of series: Antiproliferative activity against human MGC-803 cells assessed as inhibition of cell growth incubated for 48 hrs by MTT assay. The settings on record: MGC-803, 48 h. The format is functional, cell-based.
Series [9] has as its system MGC-803. Put plainly: Induction of apoptosis in human MGC-803 cells assessed as total apoptotic cells at 0.5 micromol/L incubated for 48 hrs by Annexin V-FITC/PI staining based flow cytometric analysis (reference value: 3.2%). The settings on record: dose 0.5 µmol/L, at 0.5 µM. The class given is functional. For orientation: In flow cytometry, cells or beads pass a laser one at a time.

For series [10], the system named is MGC-803. Put plainly: Induction of apoptosis in human MGC-803 cells assessed as total apoptotic cells at 1 micromol/L incubated for 48 hrs by Annexin V-FITC/PI staining based flow cytometric analysis (reference value: 3.2%). The settings on record: dose 1 µmol/L, at 1 µM. The class given is functional.
Series [11] concerns MGC-803. Kind of series: Induction of apoptosis in human MGC-803 cells assessed as total apoptotic cells at 2 micromol/L incubated for 48 hrs by Annexin V-FITC/PI staining based flow cytometric analysis (reference value: 3.2%). The format is functional. The settings on record: dose 2 µmol/L, at 2 µM.
The target of series [12] is T5, NEDD8-conjugating enzyme Ubc12 (Homo sapiens, UniProt P61081).
T5 sequence (P61081 whole entry): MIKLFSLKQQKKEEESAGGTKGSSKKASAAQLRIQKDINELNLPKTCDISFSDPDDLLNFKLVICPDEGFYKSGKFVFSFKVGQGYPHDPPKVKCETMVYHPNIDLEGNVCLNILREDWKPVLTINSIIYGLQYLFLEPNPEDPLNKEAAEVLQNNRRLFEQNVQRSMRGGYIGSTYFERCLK
Put plainly: Inhibition of Ubc12 (unknown origin)-neddylation incubated for 30 mins in presence of ATP by Western blot analysis.

Series [13] concerns the target T3, SUMO-activating enzyme. Kind of series: Inhibition of SAE1/UBA2 in human HCT-116 cells assessed as reduction in Ubc9-SUMO level incubated for 24 hrs by immunoblot analysis. The format is cell-based.
The target of series [14] is T6, Ubiquitin-like modifier-activating enzyme 6 (Homo sapiens, UniProt A0AVT1).
T6 sequence (A0AVT1 whole entry): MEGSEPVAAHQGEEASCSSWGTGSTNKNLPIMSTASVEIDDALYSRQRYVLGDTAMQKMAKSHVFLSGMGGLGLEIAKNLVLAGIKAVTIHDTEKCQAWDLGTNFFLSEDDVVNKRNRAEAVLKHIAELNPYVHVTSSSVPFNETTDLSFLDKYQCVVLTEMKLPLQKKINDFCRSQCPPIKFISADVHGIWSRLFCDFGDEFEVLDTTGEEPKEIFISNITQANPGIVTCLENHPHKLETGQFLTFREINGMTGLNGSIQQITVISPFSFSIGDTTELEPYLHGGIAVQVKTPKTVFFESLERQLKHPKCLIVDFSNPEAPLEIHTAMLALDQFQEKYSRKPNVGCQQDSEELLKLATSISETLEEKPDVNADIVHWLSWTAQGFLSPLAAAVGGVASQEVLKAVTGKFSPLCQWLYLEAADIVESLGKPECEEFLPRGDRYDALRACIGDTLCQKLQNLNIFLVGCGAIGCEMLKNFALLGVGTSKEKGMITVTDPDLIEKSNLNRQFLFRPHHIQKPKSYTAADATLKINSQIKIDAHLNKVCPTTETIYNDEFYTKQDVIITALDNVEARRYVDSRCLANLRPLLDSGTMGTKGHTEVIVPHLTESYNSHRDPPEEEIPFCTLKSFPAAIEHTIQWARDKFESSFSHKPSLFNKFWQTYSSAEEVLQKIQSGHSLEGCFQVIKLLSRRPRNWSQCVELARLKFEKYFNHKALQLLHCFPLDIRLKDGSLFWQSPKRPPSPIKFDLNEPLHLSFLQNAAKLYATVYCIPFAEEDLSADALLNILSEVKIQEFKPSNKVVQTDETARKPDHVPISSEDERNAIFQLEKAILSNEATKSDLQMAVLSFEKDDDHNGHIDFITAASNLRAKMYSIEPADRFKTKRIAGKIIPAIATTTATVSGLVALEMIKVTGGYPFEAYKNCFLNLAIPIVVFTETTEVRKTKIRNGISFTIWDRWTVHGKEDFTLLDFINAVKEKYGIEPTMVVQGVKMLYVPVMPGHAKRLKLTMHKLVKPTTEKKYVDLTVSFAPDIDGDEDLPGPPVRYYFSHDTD
Put plainly: Inhibition of His-tagged UBA6 (unknown origin) expressed in sf9 insect cells.

Series [15] deals with T7, Ubiquitin-like modifier-activating enzyme ATG7 (Homo sapiens, UniProt O95352).
T7 sequence (O95352 whole entry): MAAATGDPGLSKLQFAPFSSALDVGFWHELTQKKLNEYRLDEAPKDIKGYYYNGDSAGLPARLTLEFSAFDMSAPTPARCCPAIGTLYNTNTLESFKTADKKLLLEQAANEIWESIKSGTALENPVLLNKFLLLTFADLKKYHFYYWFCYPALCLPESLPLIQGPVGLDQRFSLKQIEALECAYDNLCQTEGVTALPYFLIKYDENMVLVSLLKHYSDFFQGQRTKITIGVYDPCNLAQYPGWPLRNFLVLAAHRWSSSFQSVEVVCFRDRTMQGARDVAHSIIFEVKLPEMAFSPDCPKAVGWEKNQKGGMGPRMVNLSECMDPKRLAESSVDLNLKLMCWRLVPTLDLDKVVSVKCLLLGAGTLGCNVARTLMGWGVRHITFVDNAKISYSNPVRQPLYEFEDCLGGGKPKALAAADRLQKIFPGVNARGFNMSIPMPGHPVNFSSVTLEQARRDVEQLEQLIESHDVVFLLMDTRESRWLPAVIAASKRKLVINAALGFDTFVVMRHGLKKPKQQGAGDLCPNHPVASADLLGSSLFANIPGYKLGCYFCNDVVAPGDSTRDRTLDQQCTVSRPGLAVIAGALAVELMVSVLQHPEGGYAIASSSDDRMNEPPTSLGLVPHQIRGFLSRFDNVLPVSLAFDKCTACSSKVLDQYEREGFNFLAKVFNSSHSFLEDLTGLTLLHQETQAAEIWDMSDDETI
Kind of series: Inhibition of His-tagged ATG7 (unknown origin) expressed in sf9 insect cells.

Some results are limits rather than exact numbers.

The IC50 is the midpoint of a concentration-inhibition curve. On to `CCOc1cccc(F)c1C#Cc1cn([C@@H]2O[C@H](CNS(N)(=O)=O)[C@@H](O)[C@H]2O)c2ncnc(N)c12`, for which the IC50 was found to be 0.955 nM in series [1], 449 nM in series [2] and 1280 nM in series [3]. Also, the Activity in [4] is listed as 0%. Besides, the Survival in series [5] was greater than 159 days.

`COC(=O)N1CCC2(CC1)C[C@H](Nc1ncnc3c1nnn3[C@@H]1C[C@@H](COS(N)(=O)=O)[C@@H](O)C1)c1ccccc12`: the IC50 in series [6] stood at 0.5 nM; in series [7] it was 66 nM.

Regarding `COc1ccc(CN(C(=O)Cn2ccc3cc(OC)ccc32)c2cc(OC)c(OC)c(OC)c2)cc1`, in series [8], the IC50 worked out at 1590 nM. The Activity in series [9] came out at 4.4%; in series [10] it was 11.1%; in [11], 65.2%.

As to `CC(C)=CCc1c(O)c(CC=C(C)C)c2oc3c(O)ccc(O)c3c(=O)c2c1O` [GARTANIN], in series [12], the IC50 amounted to 10300 nM.

`NS(=O)(=O)OC[C@@H]1C[C@@H](n2ccc3c(N[C@H]4CCc5ccccc54)ncnc32)C[C@@H]1O` [PEVONEDISTAT]: the IC50 is 8200 nM in [13], 1800 nM in series [14] and greater than 10000 nM in series [15].
